Read-outs that look alike come from different tables or passages of the source.
Legend:
Type in all cases: cell-based
HCC1954 cells = assay: Inhibitory effect of compounds on proliferation of HCC1954 cells (Cell Counting-Lite 2.0, 72 h); conditions: Homo sapiens
Procedure: (1) Cell plating: First, tumor cells HCC1954 were cultured in the corresponding culture medium, the cells were digested with trypsin, and the cells were resuspended after centrifugation and counted. The cells were adjusted to an appropriate concentration for plating.
(§1) Co-incubation of the compound of the present invention and tumor cells: After the cells adhered, the culture medium was removed from the cell culture plates, and the diluted biologically active molecule (the compound of the present invention) was added to the wells of the above plate, and incubated for 72 hours.
(§2) Detection of in vitro cell activity: After the incubation was completed, 50 μL of Cell Counting-Lite™ 2.0 reagent (Vazyme) was added to each well, shaken and mixed well in the dark to perform the reaction for 10 minutes, then the detection was carried out, and a microplate reader (manufacturer: BMG, model: PHERAStar-FS) was used for reading. The background RLU was obtained using Cell Counting-Lite™ reagent in cell-free culture medium, and the solvent RLU was obtained using Cell Counting-Lite™ reagent in cell-containing culture medium. […] RLU: relative light unit.

HT29 colon cancer cells = assay: Inhibitory effect of compounds on HT29 cell proliferation (Cell Counting-Lite 2.0, 72 h); conditions: Homo sapiens
Procedure: (1) Cell plating: First, tumor cells HT29 were cultured in the corresponding culture medium, the cells were digested with trypsin, and the cells were resuspended after centrifugation and counted. The cells were adjusted to an appropriate concentration for plating.
as §1, §2

[1] = system: NCI-H1975 human non-small cell lung cancer cells; assay: Inhibitory effect of compounds on proliferation of NCI-H1975 cells (Cell Counting-Lite 2.0, 72 h); conditions: Table 10, incubated for 72 hours
Procedure: (1) Cell plating: First, tumor cells NCI-H1975 were cultured in the corresponding culture medium, the cells were digested with trypsin, and the cells were resuspended after centrifugation and counted. The cells were adjusted to an appropriate concentration for plating.
as §1, §2

[2] = system: NCI-N87 human gastric cancer cells; assay: Inhibitory effects of compounds on NCI-N87 cell proliferation (Cell Counting-Lite 2.0, 72 h); conditions: NCI-N87, 72 h
Procedure: (1) Cell plating: First, tumor cells NCI-N87 were cultured in the corresponding culture medium, the cells were digested with trypsin, and the cells were resuspended after centrifugation and counted. The cells were adjusted to an appropriate concentration for plating.
as §1, §2

[3] = system: HCC827 human non-small cell lung cancer cells; assay: Inhibitory effect of compounds on HCC827 cell proliferation (Cell Counting-Lite 2.0, 72 h); conditions: Table 6, incubated for 72 hours, read-out: Inhibition activity of compounds on proliferation of HCC827 cells IC50
Procedure: (1) Cell plating: First, tumor cells HCC827 were cultured in the corresponding culture medium, the cells were digested with trypsin, and the cells were resuspended after centrifugation and counted. The cells were adjusted to an appropriate concentration for plating.
as §1, §2

[4] = Table 8-2, incubated for 72 hours, read-out: Inhibitory activity of compounds on proliferation of HCC1954 cells IC50
[5] = HT-29, Table 4-2, incubated for 72 hours
[6] = Table 2-2, incubated for 72 hours
[7] = Table 8-1, incubated for 72 hours, read-out: Inhibition activity of compounds on proliferation of HCC1954 cells IC50
[8] = HT-29, Table 4-1, incubated for 72 hours
[9] = Table 2-1, incubated for 72 hours

Row | Compound | IC50 (HCC1954 cells; [4]) [nM] | IC50 (HT29 colon cancer cells; [5]) [nM] | IC50 [1] [nM] | IC50 [2, 6] [nM] | IC50 (HCC1954 cells; [7]) [nM] | IC50 (HT29 colon cancer cells; [8]) [nM] | IC50 [2, 9] [nM] | IC50 [3] [nM]
1 | COc1cc2c(cc1OCCCCCOc1cc3c(cc1OC)C(=O)N1CC4(CC4)C[C@H]1CN3)NC[C@@H]1CC(c3ccc(O)cc3)=CN1C2=O [Compound 7-3, (S)-8-((5-(((S)-2-(4-Hydroxyphenyl)-7-methoxy-5-oxo-5,10,11,11a-tetrahydro-1H-benzo[e]pyrrolo[1,2-a][1,4]diazepin-8-yl)oxy)pentyl)oxy)-7-methoxy-1,10,11,11a-tetrahydro-3H,5H-spiro[benzo[e]pyrrolo[1,2-a][1,4]diazepin-2,1′-cyclopropane]-5-one] | 208 | 10.2 | 124 | 79.3 |  |  |  | 
2 | COc1cc2c(cc1OCCCCCOc1cc3c(cc1OC)C(=O)N1CC4(CC4)C[C@H]1CN3)NC[C@@H]1CC(c3ccc(N)cc3)=CN1C2=O [Compound 7-5, (S)-8-((5-(((S)-2-(4-Aminophenyl)-7-methoxy-5-oxo-5,10,11,11a-tetrahydro-1H-benzo[e]pyrrolo[1,2-a][1,4]diazepin-8-yl)oxy)pentyl)oxy)-7-methoxy-1,10,11,11-tetrahydro-3H,5H-spiro[benzo[e]pyrrolo[1,2-a][1,4]diazepin-2,1′-cyclopropane]-5-one] |  |  | 12.3 | 4.1 | 25.9 | 1.4 | 3.2 | 13.1
3 | COc1cc2c(cc1OCCCCCOc1cc3c(cc1OC)C(=O)N1CC4(CC4)C[C@H]1CN3)NC[C@@H]1CC3(CC3)CN1C2=O [Compound 7-9] |  |  | 107 |  | 125 | 14.9 | 29.7 | 116
4 | COc1cc2c(cc1OCCCCCOc1cc3c(cc1OC)C(=O)N1CC(F)(F)C[C@H]1CN3)NC[C@@H]1CC(c3ccc(N)cc3)=CN1C2=O [Compound 7-29, (S)-2-(4-aminophenyl)-8-((5-(((S)-2,2-difluoro-7-methoxy-5-oxo-2,3,5,10,11,11a-hexahydro-1H-benzo[e]pyrrolo[1,2-a][1,4]diazepin-8-yl)oxy)pentyl)oxy)-7-methoxy-1,10,11,11a-tetrahydro-5H-benzo[e]pyrrolo[1,2-a][1,4]diazepin-5-one] | 154 |  |  | 117 |  |  |  | 
5 | COc1cc2c(cc1OCCCCCOc1cc3c(cc1OC)C(=O)N1CC4(CC4)C[C@H]1CN3)NC[C@@H]1C[C@@H](c3ccc(N)cc3)CN1C2=O [Compound 7-34, (S)-8-((5-(((2S,11aS)-2-(4-aminophenyl)-7-methoxy-5-oxo-2,3,5,10,11,11a-hexahydro-1H-benzo[e]pyrrolo[1,2-a][1,4]diazepin-8-yl)oxy)pentyl)oxy)-7-methoxy-1,10,11,11a-tetrahydro-3H,5H-spiro[benzo[e]pyrrolo[1,2-a][1,4]diazepin-2,1′-cyclopropane]-5-one] |  |  |  | 120 |  |  |  | 
6 | COc1cc2c(cc1OCCCCCOc1cc3c(cc1OC)C(=O)N1CC4(CC4)C[C@H]1CN3)NC[C@@H]1C[C@H](c3ccc(N)cc3)CN1C2=O [Compound 7-35] |  |  |  | 118 |  |  |  | 
7 | COc1cc2c(cc1OCCCCCOc1cc3c(cc1OC)C(=O)N1CC4(CC4)C[C@H]1CN3)NC[C@@H]1CC(c3ccoc3)=CN1C2=O [Compound 7-36, (S)-8-((5-(((S)-2-(furan-3-yl)-7-methoxy-5-oxo-5,10,11,11a-tetrahydro-1H-benzo[e]pyrrolo[1,2-a][1,4]diazepin-8-yl)oxy)pentyl)oxy)-7-methoxy-1,10,11,11a-tetrahydro-3H,5H-spiro[benzo[e]pyrrolo[1,2-a][1,4]diazepin-2,1′-cyclopropane]-5-one] |  |  | 114 |  | 144 | 14.7 | 15.4 | 126
8 | COc1cc2c(cc1OCCCCCOc1cc3c(cc1OC)C(=O)N1CC4(CC4)C[C@H]1CN3)NC[C@@H]1CC(c3ccsc3)=CN1C2=O [Compound 7-37, (S)-7-methoxy-8-((5-(((S)-7-methoxy-5-oxo-2-(thien-3-yl)-5,10,11,11a-tetrahydro-1H-benzo[e]pyrrolo[1,2-a][1,4]diazepin-8-yl)oxy)pentyl)oxy)-1,10,11,11a-tetrahydro-3H,5H-spiro[benzo[e]pyrrolo[1,2-a][1,4]diazepin-2,1′-cyclopropane]-5-one] |  |  | 101 |  | 148 | 16.2 | 24.2 | 124
9 | COc1cc2c(cc1OCCCCCOc1cc3c(cc1OC)C(=O)N1CC4(CC4)C[C@H]1CN3)NC[C@@H]1CC(c3csc(CO)c3)=CN1C2=O [Compound 7-38, (S)-8-((5-(((S)-2-(5-(hydroxymethyl)thien-3-yl)-7-methoxy-5-oxo-5,10,11,11a-tetrahydro-1H-benzo[e]pyrrolo[1,2-a][1,4]diazepin-8-yl)oxy)pentyl)oxy)-7-methoxy-1,10,11,11a-tetrahydro-3H,5H-spiro[benzo[e]pyrrolo[1,2-a][1,4]diazepin-2,1′-cyclopropane]-5-one] |  |  | 105 |  | 695 | 15.4 | 49.7 | 139
10 | COc1ccc(C2=CN3C(=O)c4cc(OC)c(OCCCCCOc5cc6c(cc5OC)C(=O)N5CC(F)(F)C[C@H]5CN6)cc4NC[C@@H]3C2)cc1 [Compound 7-39, (S)-8-((5-(((S)-2,2-difluoro-7-methoxy-5-oxo-2,3,5, 10,11,11a-hexahydro-1H-benzo[e]pyrrolo[1,2-a][1,4]diazepin-8-yl)oxy)pentyl)oxy)-7-methoxy-2-(4-methoxyphenyl)-1,10,11,11a-tetrahydro-5H-benzo[e]pyrrolo[1,2-a][1,4]diazepin-5-one] | 140 | 9.7 | 12.3 | 11 |  |  |  | 
11 | COc1ccc(C2=CN3C(=O)c4cc(OC)c(OCCCCCOc5cc6c(cc5OC)C(=O)N5C[C@H](O)C[C@H]5CN6)cc4NC[C@@H]3C2)cc1 [Compound 7-40, (S)-8-((5-(((2R,11aS)-2-hydroxy-7-methoxy-5-oxo-2,3,5,10,11,11a-hexahydro-1H-benzo[e]pyrrolo[1,2-a][1,4]diazepin-8-yl)oxy)pentyl)oxy)-7-methoxy-2-(4-methoxyphenyl)-1,10,11,11a-tetrahydro-5H-benzo[e]pyrrolo[1,2-a][1,4]diazepin-5-one] | 128 |  |  | 93.6 |  |  |  | 
12 | C=C1C[C@H]2CNc3cc(OCCCCCOc4cc5c(cc4OC)C(=O)N4C=C(c6ccc(OC)cc6)C[C@H]4CN5)c(OC)cc3C(=O)N2C1 [Compound 7-41, (S)-7-methoxy-8-((5-(((S)-7-methoxy-2-methylene-5-oxo-2,3,5,10,11,11a-hexahydro-1H-benzo[e]pyrrolo[1,2-a][1,4]diazepin-8-yl)oxy)pentyl)oxy)-2-(4-methoxyphenyl)-1,10,11,11a-tetrahydro-5H-benzo[e]pyrrolo[1,2-a][1,4]diazepin-5-one] |  |  | 69.9 |  | 259 | 9.8 | 12.7 | 225
13 | COc1ccc(C2=CN3C(=O)c4cc(OC)c(OCCCCCOc5cc6c(cc5OC)C(=O)N5[C@H](CN6)C[C@H]6C[C@H]65)cc4NC(=O)[C@@H]3C2)cc1 [Compound 7-42] |  | 99.7 |  | 100 |  |  |  | 
14 | COc1ccc(C2=CN3C(=O)c4cc(OC)c(OCCCCCOc5cc6c(cc5OC)C(=O)N5[C@H](CN6)C[C@H]6C[C@H]65)cc4NC[C@@H]3C2)cc1 [Compound 7-43, (1aR,9aS,10aR)-5-methoxy-6-((5-(((S)-7-methoxy-2-(4-methoxyphenyl)-5-oxo-5,10,11,11a-tetrahydro-1H-benzo[e]pyrrolo[1,2-a][1,4]diazepin-8-yl)oxy)pentyl)oxy)-1a,8,9,9a,10,10a-hexahydrobenzo[e]cyclopropo[4,5]pyrrolo[1,2-a][1,4]diazepin-3(1H)-one] |  | 10.2 |  | 10.1 |  |  |  | 
